What was measured:
DBH = experiment: in vivo DBH inhibition, heart dopamine level in spontaneously hypertensive rats; conditions: 50 mg/kg, IP, 6 hours post dose in SHR's; Control 0.015 ± .002; p < .001
Protocol: The compounds of this invention may also be tested for their in vivo DBH inhibiting property according to the procedure of Felice, Felice and Kessinger, J. Neurochem., 31, 1461-1465 (1978) wherein the effects on peripheral dopamine and norepinephrine levels are determined. In this test spontaneously hypertensive rats are dosed (i.p.) at 50 mg per kilogram of body weight and sacrificed six hours later. Average results, expressed in micrograms of dopamine (DA) per gram of heart tissue are determined with the difference between the control and the treated rats being the in vivo (DBH) inhibitory effect of the test compound.

[1] = test system: spontaneously hypertensive rats (SHR's); experiment: in vivo antihypertensive effect, blood pressure in spontaneously hypertensive rats; conditions: 50 mg/kg, IP, Mean Difference ± Standard Deviation
Protocol: The ability of the compounds of this invention to lower blood pressure can be determined in vivo using spontaneously hypertensive rats (SHR's) according to standard and well known procedures. The test compound is administered intraperitoneally (ip) to rats and the blood pressure monitored continuously. Since DBH is a major enzyme in the synthetic pathway of the catecholamines, it would be expected that the presence of an inhibitor would act to decrease the amount of catecholamines produced, and thereby have an antihypertensive effect. The results of the testing for this antihypertensive effect are shown in Table I (MBP is mean blood pressure).

[2] = biological target: T1, dopamine beta-hydroxylase (DBH) (Bos taurus, UniProt P15101); experiment: in vitro inhibition of dopamine beta-hydroxylase (conversion of tyramine to octopamine, oxygen uptake by polarographic electrode); assay type: biochemical; conditions: pH 5, 20-40° C, preferably 37° C
T1 sequence (P15101 1-610): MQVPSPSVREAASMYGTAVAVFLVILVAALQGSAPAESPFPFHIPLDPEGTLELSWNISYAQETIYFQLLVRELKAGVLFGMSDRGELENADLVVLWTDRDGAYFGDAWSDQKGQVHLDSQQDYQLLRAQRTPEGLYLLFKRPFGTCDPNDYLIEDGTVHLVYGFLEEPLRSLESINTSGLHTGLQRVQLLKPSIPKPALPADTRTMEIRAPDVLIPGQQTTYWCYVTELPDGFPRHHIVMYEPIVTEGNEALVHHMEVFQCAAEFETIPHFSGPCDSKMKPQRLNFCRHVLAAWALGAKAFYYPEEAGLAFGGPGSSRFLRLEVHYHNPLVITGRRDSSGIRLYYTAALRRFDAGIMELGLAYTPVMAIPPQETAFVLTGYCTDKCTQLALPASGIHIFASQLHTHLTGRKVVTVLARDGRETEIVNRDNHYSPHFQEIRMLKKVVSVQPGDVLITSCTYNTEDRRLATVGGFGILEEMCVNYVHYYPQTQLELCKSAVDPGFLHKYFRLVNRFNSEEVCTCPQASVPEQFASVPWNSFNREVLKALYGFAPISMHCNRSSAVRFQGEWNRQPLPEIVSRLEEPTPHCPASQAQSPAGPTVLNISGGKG
Protocol: The DBH inhibitory compounds of this invention can readily be determined in vitro by standard and well known procedures for assaying conversion of tyramine to octopamine in the presence of dopamine beta-hydroxylase (DBH). Enzymatic oxygenation by DBH is determined in aqueous solution in the presence of molecular oxygen, an electron donor such as ascorbate, and the necessary cofactors for the enzyme at pH of 5 and a temperature of 20°-40° C., preferably 37° C. The test compound is added at the desired concentration, and the system is incubated. Activity is determined by measuring the oxygen uptake using a polarographic electrode and an oxygen monitor by the method of S. May, et al., J. Biol. Chem. 256, 2258 (1981). Inhibition is given in molar concentration of compound at which DBH activity was halved (IC50) when the test compounds were tested according to the above described procedure. The IC50 (expressed in micromolar units) data of some of the compounds of this invention are expressed in Table I.

Structure (SMILES) | Heart DA (dopamine per gram of heart tissue), treated (DBH) | Max Change MBP (mean blood pressure) [1] [mmHg] | IC50 [2] [nM]
S=c1[nH]ccn1CCc1cccs1 [Compound 1, 1,3-Dihydro-1-[2-(2-thienyl)ethyl]-2H-imidazole-2-thione] | 0.038 ± .003 µg/g | -45 ± 17 | 120
Sc1nccn1CCCc1cccs1 [Compound 2, 1,3-Dihydro-1-[3-(2-thienyl)propyl]-2H-imidazole-2-thione] |  |  | 1860

From patent US5057613A, “Novel thione dopamine beta hydroxylase inhibitors” (Merrell Dow Pharmaceuticals, priority 1987, dated 1991)
